Assay results reported in PubChem BioAssay (NCI).
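These data come from cells grown in 96-well plates and exposed to compound for 48 hours at five concentrations. The concentration for 50% growth inhibition is given as GI50. TGI denotes the concentration required for complete inhibition of growth.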

Experiments:
Test in all cases: NCI tumour cell line growth inhibition, 48 h
[1] = system: HOP-62 NSCLC
[2] = system: SK-MEL-2 melanoma
[3] = system: MALME-3M melanoma
[4] = system: M14 melanoma
[5] = system: 786-0 renal
[6] = system: SF-268 CNS
[7] = system: RPMI-8226 leukemia
[8] = system: A549 NSCLC
[9] = system: HCT-116 colon
[10] = system: OVCAR-8 ovarian
[11] = system: IGROV1 ovarian
[12] = system: NCI-H226 lung
[13] = system: PC-3 prostate
[14] = system: HCC-2998 colon
[15] = system: COLO 205 colon
[16] = system: ACHN renal
[17] = system: SF-295 CNS
[18] = system: UACC-257 melanoma
[19] = system: SR leukemia
[20] = system: UO-31 renal
[21] = system: BT-549 breast
[22] = system: SW-620 colon
[23] = system: MDA-MB-231 breast
[24] = system: HCT-15 colon
[25] = system: HT29 colon
[26] = system: LOX IMVI melanoma
[27] = system: MDA-MB-468 breast
[28] = system: RXF 393 renal
[29] = system: OVCAR-3 ovarian

CN1CCc2c(sc3ncnc(N/N=C/c4ccc(Cl)cc4Cl)c23)C1
TGI [1]: 16.9 µM | GI50 [2]: 3.59 µM | TGI [2]: 13.9 µM | GI50 [3]: 1.9 µM | TGI [3]: 3.94 µM | GI50 [4]: 1.71 µM | TGI [4]: 3.45 µM | GI50 [5]: 1.77 µM | TGI [5]: 3.26 µM | GI50 [6]: 4.64 µM | TGI [6]: > 100 µM | GI50 [7]: 2.51 µM | TGI [7]: 11.8 µM | GI50 [8]: 3.73 µM | TGI [8]: 16.9 µM | GI50 [9]: 3.04 µM | TGI [9]: 11.4 µM | GI50 [10]: 2.38 µM | TGI [10]: 7.62 µM | GI50 [11]: 6.89 µM | TGI [11]: > 100 µM | GI50 [12]: 2.11 µM | TGI [12]: 8.21 µM | GI50 [13]: 3.96 µM | TGI [13]: > 100 µM | GI50 [14]: 3.69 µM | TGI [14]: 15.3 µM | GI50 [15]: 1.66 µM | TGI [15]: 3.41 µM | GI50 [16]: 1.88 µM | TGI [16]: 3.97 µM | GI50 [17]: 2.3 µM | TGI [17]: 8.18 µM | GI50 [18]: 2.86 µM | TGI [18]: 9.96 µM | GI50 [19]: 2.27 µM | TGI [19]: 9.19 µM | GI50 [20]: 1.47 µM | TGI [20]: 2.83 µM | GI50 [21]: 3.97 µM | TGI [21]: 16 µM | GI50 [22]: 1.91 µM | TGI [22]: 4.34 µM | GI50 [23]: 1.93 µM | TGI [23]: 4.71 µM | GI50 [24]: 2.95 µM | TGI [24]: 13.7 µM | GI50 [25]: 2.13 µM | TGI [25]: 4.91 µM | GI50 [26]: 1.49 µM | TGI [26]: 2.93 µM | GI50 [27]: 1.52 µM | TGI [27]: 3.32 µM | GI50 [28]: 2.1 µM | TGI [28]: 4.95 µM | GI50 [29]: 1.34 µM | TGI [29]: 2.88 µM
